Data published in patent US10308643B2, “Heterocyclic compound” (Takeda Pharmaceutical Company Limited, priority 2015, dated 2019).

What was measured:
Assay type in all cases: biochemical
HDAC9 enzyme = biological target: T1, HDAC9 enzyme (Homo sapiens, UniProt Q9UKV0); assay: HDAC9 Enzyme Inhibitory Assay (HDAC-Glo class IIa); settings: 1 μM test compound; wells without enzyme = 100% inhibition; read-out: HDAC9 inhibitory rate (%) (1 μM)
T1 construct: transducing full length HDAC9 gene into Sf-9 insect cells; made in house; host or cells: Sf-9 insect cells
Procedure: HDAC9 Enzyme Inhibitory Assay
Enzyme was prepared by transducing full length HDAC9 gene into Sf-9 insect cells and purifying by Ni-NTA affinity column, and HDAC9 enzyme inhibitory activity was evaluated. Enzymes were used after preserved at −70° C. HDAC9 enzyme inhibitory activity of the test compound was measured using HDAC-Glo class IIa (Promega) according to the following experimental method. The test compound diluted with assay buffer (24 mM Tris-HCl (pH 7.5), 1 mM MgCl2, 0.35 mM KCl, 135 mM NaCl, 0.6 mM Glutathione, 0.01% Tween-20) was added to a 384-well plate by each 2 μL. Then, HDAC9 enzyme solution diluted with assay buffer was added thereto by each 2 μL, and the plate was incubated at room temperature for 60 min. After incubated, HDAC substrate-Developer solution prepared according to Promega protocol was added to the 384-well plate by each 4 μL, and the enzyme reaction was started. After reacting at room temperature for 20 min, luminescence level was measured using plate reader Envision (PerkinElmer). The inhibitory activity of each compound was calculated as a relative activity value when luminescence level in wells without enzyme is considered as 100% inhibition.

HDAC1 enzyme = biological target: T2, HDAC1 enzyme (Homo sapiens, UniProt Q13547); assay: HDAC1/6 Enzyme Inhibitory Assay (HDAC-Glo I/II Assay kit), HDAC1; settings: 1 μM test compound, wells without enzyme = 100% inhibition; for inhibition at 1 µM: read-out: HDAC1 inhibitory rate (%) (1 μM)
T2 construct: transducing full length HDAC1 and HDAC6 genes into Sf-9 insect cells; GST; purchased SignalChem; host or cells: Sf-9 insect cells
Procedure: (§1) HDAC1/6 Enzyme Inhibitory Assay
(§2) HDAC1 enzyme and HDAC6 enzyme each prepared by transducing full length HDAC1 and HDAC6 genes into Sf-9 insect cells and purifying by GST affinity column were purchased from SignalChem. Using these enzymes, HDAC1 and/or HDAC6 enzyme inhibitory activities of the compound of the present invention were evaluated. Enzymes were used after preserved at −70° C. HDAC1 or HDAC6 enzyme inhibitory activity of the compound of the present invention was measured using HDAC-Glo™ I/II Assay kit (Promega) according to the following experimental method. The test compound diluted with assay buffer (24 mM Tris-HCl (pH 7.5), 1 mM MgCl2, 0.35 mM KCl, 135 mM NaCl, 0.6 mM Glutathione, 0.01% Tween-20) was added to a 384-well plate by each 2 μL. Then, HDAC1 or HDAC6 enzyme solution diluted with assay buffer was added thereto by each 4 μL, and the plate was incubated at room temperature for 60 min. After incubated, HDAC substrate-Developer solution prepared according to Promega protocol attached to the assay kit was added to the 384-well plate by each 2 μL, and the enzyme reaction was started. After reacting at room temperature for 20 min, luminescence level was measured using plate reader Envision (PerkinElmer). The inhibitory activity of each compound was calculated as a relative activity value when luminescence level in wells without enzyme is considered as 100% inhibition.

HDAC6 enzyme = biological target: T3, HDAC6 enzyme (Homo sapiens, UniProt Q9UBN7); assay: HDAC1/6 Enzyme Inhibitory Assay (HDAC-Glo I/II Assay kit), HDAC6; settings: 1 μM test compound; wells without enzyme = 100% inhibition; read-out: HDAC6 inhibitory rate (%) (1 μM)
T3 construct: transducing full length HDAC1 and HDAC6 genes into Sf-9 insect cells; GST; purchased SignalChem; host or cells: Sf-9 insect cells
T3 sequence (Q9UBN7 1-1215): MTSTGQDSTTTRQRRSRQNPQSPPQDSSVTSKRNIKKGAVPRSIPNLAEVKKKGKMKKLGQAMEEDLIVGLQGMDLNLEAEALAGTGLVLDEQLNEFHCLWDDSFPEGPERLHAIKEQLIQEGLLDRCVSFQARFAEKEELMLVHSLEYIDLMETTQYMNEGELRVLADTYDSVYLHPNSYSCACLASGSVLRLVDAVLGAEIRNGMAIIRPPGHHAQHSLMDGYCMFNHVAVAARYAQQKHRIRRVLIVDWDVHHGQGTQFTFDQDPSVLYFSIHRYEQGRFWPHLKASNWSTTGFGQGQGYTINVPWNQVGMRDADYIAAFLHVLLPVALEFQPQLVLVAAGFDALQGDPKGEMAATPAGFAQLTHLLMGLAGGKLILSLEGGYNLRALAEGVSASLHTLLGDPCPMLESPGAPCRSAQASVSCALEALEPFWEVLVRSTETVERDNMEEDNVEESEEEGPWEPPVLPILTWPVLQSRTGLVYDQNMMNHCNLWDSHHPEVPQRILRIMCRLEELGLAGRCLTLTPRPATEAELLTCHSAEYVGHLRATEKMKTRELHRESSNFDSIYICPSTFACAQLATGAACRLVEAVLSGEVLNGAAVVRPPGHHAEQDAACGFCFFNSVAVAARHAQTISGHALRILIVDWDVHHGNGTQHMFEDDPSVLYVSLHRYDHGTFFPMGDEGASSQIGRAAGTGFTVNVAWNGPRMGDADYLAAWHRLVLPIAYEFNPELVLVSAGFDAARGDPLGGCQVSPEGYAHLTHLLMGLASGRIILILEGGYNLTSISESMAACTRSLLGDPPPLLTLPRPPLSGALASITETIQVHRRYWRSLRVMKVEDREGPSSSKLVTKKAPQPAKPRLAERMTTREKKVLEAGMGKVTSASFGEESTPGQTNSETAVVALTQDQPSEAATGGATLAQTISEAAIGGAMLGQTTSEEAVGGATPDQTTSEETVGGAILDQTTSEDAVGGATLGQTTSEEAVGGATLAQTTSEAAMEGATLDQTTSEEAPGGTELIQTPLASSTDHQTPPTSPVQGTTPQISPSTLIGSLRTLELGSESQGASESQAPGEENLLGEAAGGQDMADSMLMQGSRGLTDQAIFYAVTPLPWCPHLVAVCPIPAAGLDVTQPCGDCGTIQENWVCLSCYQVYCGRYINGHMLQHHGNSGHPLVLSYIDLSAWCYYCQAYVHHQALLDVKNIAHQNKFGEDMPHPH
Procedure: as §1, §2

T1 sequence (Q9UKV0 whole entry, species assumed): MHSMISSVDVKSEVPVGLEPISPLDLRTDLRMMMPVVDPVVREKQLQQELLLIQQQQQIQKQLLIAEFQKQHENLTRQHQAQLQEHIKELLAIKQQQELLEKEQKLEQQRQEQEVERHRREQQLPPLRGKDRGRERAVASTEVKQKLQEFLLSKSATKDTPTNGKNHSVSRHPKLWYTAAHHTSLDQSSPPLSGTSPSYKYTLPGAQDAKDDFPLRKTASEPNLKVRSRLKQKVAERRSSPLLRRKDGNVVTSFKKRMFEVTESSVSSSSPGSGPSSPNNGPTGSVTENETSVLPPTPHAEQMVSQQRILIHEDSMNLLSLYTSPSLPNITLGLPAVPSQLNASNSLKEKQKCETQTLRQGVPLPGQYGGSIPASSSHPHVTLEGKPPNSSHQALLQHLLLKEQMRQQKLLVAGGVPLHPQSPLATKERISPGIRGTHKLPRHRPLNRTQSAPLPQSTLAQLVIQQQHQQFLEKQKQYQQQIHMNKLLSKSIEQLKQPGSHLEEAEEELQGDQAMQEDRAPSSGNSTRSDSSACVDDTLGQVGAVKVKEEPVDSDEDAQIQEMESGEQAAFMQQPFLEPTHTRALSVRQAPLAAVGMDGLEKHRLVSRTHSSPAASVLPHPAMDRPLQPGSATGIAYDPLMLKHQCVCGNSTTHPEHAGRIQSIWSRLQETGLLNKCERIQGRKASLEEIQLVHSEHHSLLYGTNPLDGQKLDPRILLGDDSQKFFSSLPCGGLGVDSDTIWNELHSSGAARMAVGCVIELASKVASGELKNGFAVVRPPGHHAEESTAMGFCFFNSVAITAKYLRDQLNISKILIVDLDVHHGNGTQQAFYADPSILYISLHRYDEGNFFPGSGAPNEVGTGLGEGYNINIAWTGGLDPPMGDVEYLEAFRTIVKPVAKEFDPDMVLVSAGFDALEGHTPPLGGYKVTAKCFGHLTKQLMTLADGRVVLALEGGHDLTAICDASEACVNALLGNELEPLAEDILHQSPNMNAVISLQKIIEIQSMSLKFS
T2 sequence (Q13547 whole entry): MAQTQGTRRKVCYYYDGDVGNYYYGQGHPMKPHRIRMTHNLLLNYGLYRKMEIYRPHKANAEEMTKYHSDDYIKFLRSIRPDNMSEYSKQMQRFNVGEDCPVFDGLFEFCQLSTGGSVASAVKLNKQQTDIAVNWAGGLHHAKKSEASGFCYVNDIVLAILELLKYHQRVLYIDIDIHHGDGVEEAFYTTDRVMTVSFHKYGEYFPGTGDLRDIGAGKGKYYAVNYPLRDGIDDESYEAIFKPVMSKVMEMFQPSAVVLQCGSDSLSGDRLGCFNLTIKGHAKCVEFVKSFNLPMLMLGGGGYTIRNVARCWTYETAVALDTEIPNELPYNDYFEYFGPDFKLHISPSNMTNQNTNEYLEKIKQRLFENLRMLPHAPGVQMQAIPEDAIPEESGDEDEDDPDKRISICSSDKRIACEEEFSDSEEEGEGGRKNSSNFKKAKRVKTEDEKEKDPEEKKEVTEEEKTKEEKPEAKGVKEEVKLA

inhibition at 1 µM (HDAC9 enzyme)	inhibition at 1 µM (HDAC1 enzyme)	inhibition at 1 µM (HDAC6 enzyme)	HDAC1 inhibitory rate (%) (1 μM) (HDAC1 enzyme; 1 µM)	SMILES
85%	37%	98%		O=C1c2cc(-c3noc(C(F)(F)F)n3)ccc2CN1[C@@H]1CCCC[C@H]1NS(=O)(=O)C1CC1 [Example 89, N-((1R,2R)-2-(1-oxo-6-(5-(trifluoromethyl)-1,2,4-oxadiazol-3-yl)-1,3-dihydro-2H-isoindol-2-yl)cyclohexyl) cyclopropanesulfonamide]
65%	9%	95%		CC(C)(C)OC(=O)N[C@@H]1CCCC[C@H]1N1Cc2ccc(-c3noc(C(F)(F)F)n3)cc2C1=O (relative stereo) [Example 6, tert-butyl trans-(2-(1-oxo-6-(5-(trifluoromethyl)-1,2,4-oxadiazol-3-yl)-1,3-dihydro-2H-isoindol-2-yl)cyclohexyl)carbamate]
97%	79%	98%		CC(C)(C)OC(=O)N1CC[C@@H](N2Cc3ncc(-c4noc(C(F)(F)F)n4)cc3C2=O)[C@H](c2ccccc2)C1 [Example 88, tert-butyl (3R,4R)-4-(5-oxo-3-(5-(trifluoromethyl)-1,2,4-oxadiazol-3-yl)-5,7-dihydro-6H-pyrrolo[3,4-b]pyridin-6-yl)-3-phenylpiperidine-1-carboxylate]
99%	93%	97%		Cc1ccc([C@@H]2CNCC[C@H]2N2Cc3ccc(-c4noc(C(F)(F)F)n4)cc3C2=O)cc1Cl (relative stereo) [Example 56, 2-(trans-3-(3-chloro-4-methylphenyl)piperidin-4-yl)-6-(5-(trifluoromethyl)-1,2,4-oxadiazol-3-yl)isoindolin-1-one]
86%	23%	91%		CC(=O)N1CCCC(N2Cc3ncc(-c4noc(C(F)(F)F)n4)cc3C2=O)C1 (stereo not drawn) [Example 39, 6-(1-acetylpiperidin-3-yl)-3-(5-(trifluoromethyl)-1,2,4-oxadiazol-3-yl)-6,7-dihydro-5H-pyrrolo[3,4-b]pyridin-5-one]
77%		96%	31%	O=C(N[C@H]1CCOC[C@H]1N1Cc2ccc(-c3noc(C(F)(F)F)n3)cc2C1=O)C1CC1(F)F (single isomer, unassigned) [Example 213, (1R) or (1S)-2,2-difluoro-N-((3S,4S)-3-(1-oxo-6-(5-(trifluoromethyl)-1,2,4-oxadiazol-3-yl)-1,3-dihydro-2H-isoindol-2-yl)tetrahydro-2H-pyran-4-yl)cyclopropanecarboxamide]
87%	49%	98%		O=C1c2cc(-c3noc(C(F)(F)F)n3)ccc2CN1[C@H]1CCNC[C@H]1c1ccccc1 [Example 16, 2-((3R,4S)-3-phenylpiperidin-4-yl)-6-(5-(trifluoromethyl)-1,2,4-oxadiazol-3-yl)isoindolin-1-one]
85%	13%	100%		O=C(N[C@@H]1COCC[C@H]1N1Cc2ccc(-c3noc(C(F)(F)F)n3)cc2C1=O)[C@H]1CC1(F)F [Example 150, (1R)-2,2-difluoro-N-((3S,4R)-4-(1-oxo-6-(5-(trifluoromethyl)-1,2,4-oxadiazol-3-yl)-1,3-dihydro-2H-isoindol-2-yl)tetrahydro-2H-pyran-3-yl)cyclopropanecarboxamide]
32%	0%	97%		O=C1c2cc(-c3noc(C(F)(F)F)n3)ccc2CN1[C@@H]1CCCC[C@H]1NC(=O)C1(CO)CCOCC1 [Example 113, 4-(hydroxymethyl)-N-((1R,2R)-2-(1-oxo-6-(5-(trifluoromethyl)-1,2,4-oxadiazol-3-yl)-1,3-dihydro-2H-isoindol-2-yl)cyclohexyl)tetrahydro-2H-pyran-4-carboxamide]
85%	18%	102%		O=C(N[C@@H]1CCCC[C@H]1N1Cc2ncc(-c3noc(C(F)(F)F)n3)cc2C1=O)C1CC1 [Example 84, N-((1R,2R)-2-(5-oxo-3-(5-(trifluoromethyl)-1,2,4-oxadiazol-3-yl)-5,7-dihydro-6H-pyrrolo[3,4-b]pyridin-6-yl)cyclohexyl) cyclopropanecarboxamide]
45%	10%	95%		CN(C)C(=O)c1ccccc1N1Cc2ccc(-c3noc(C(F)(F)F)n3)cc2C1=O [Example 188, N,N-dimethyl-2-(1-oxo-6-(5-(trifluoromethyl)-1,2,4-oxadiazol-3-yl)-1,3-dihydro-2H-isoindol-2-yl)benzamide]
40%	10%	98%		O=C(N[C@@H]1CCCC[C@H]1N1Cc2ccc(-c3noc(C(F)(F)F)n3)cc2C1=O)N1CCC(F)(F)C1 [Example 169, 3,3-difluoro-N-((1R,2R)-2-(1-oxo-6-(5-(trifluoromethyl)-1,2,4-oxadiazol-3-yl)-1,3-dihydro-2H-isoindol-2-yl)cyclohexyl)pyrrolidine-1-carboxamide]
53%	21%	82%		O=C(N[C@H]1CCCC[C@@H]1N1Cc2ccc(-c3noc(C(F)(F)F)n3)cc2C1=O)[C@@H]1CCCO1 [Example 217, (2S)-N-((1S,2S)-2-(1-oxo-6-(5-(trifluoromethyl)-1,2,4-oxadiazol-3-yl)-1,3-dihydro-2H-isoindol-2-yl)cyclohexyl)tetrahydrofuran-2-carboxamide]

SMILES	inhibition at 1 µM (HDAC9 enzyme)	inhibition at 1 µM (HDAC1 enzyme)	inhibition at 1 µM (HDAC6 enzyme)	HDAC1 inhibitory rate (%) (1 μM) (HDAC1 enzyme; 1 µM)
O=C(N[C@@H]1CCCC[C@H]1N1Cc2ccc(-c3noc(C(F)(F)F)n3)cc2C1=O)N1C2COCC1C2 [Example 144, N-((1R,2R)-2-(1-oxo-6-(5-(trifluoromethyl)-1,2,4-oxadiazol-3-yl)-1,3-dihydro-2H-isoindol-2-yl)cyclohexyl)-3-oxa-6-azabicyclo[3.1.1]heptane-6-carboxamide]	31%	3%	100%	
